Results on 36 molecules are retold here after patent publication US20220226337A1 (Gilead Sciences, Inc., priority 2018, published 2022).

The experiment deals with T1, α4β7 integrin interaction with MadCAM-1 (RPMI8866 cells) (Homo sapiens, UniProt P13612+P26010).
T1 construct: α4β7 integrin expressing cells; endogenous in cells; host or cells: RPMI8866 cells
T1 sequence (P13612 34-1032): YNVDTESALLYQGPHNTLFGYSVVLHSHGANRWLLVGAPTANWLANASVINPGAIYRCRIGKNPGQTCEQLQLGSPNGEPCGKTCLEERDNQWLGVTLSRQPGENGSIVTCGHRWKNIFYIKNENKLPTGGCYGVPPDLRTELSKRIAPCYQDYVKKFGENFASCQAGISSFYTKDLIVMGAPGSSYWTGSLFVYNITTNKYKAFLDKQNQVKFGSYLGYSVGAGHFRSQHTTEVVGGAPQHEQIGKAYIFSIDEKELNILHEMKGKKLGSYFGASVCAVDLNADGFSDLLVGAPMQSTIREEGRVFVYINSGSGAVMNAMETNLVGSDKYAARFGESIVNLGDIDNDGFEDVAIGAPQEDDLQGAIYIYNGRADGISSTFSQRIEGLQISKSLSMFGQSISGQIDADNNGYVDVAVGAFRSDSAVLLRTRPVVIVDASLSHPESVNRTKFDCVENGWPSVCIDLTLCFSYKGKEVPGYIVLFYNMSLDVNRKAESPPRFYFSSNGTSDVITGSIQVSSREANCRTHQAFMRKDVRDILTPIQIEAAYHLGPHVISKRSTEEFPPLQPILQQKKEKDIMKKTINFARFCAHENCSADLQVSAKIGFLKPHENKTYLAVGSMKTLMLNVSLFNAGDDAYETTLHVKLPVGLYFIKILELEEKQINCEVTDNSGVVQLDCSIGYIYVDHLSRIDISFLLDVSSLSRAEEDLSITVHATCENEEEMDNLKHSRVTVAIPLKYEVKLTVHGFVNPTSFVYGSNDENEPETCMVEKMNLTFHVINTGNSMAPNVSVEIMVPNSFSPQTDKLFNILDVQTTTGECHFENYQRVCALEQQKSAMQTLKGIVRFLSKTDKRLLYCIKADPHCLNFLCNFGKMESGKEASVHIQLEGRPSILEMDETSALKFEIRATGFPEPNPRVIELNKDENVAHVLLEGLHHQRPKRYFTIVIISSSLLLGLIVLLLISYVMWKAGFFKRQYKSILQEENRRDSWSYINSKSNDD
T1 sequence (P26010 20-798): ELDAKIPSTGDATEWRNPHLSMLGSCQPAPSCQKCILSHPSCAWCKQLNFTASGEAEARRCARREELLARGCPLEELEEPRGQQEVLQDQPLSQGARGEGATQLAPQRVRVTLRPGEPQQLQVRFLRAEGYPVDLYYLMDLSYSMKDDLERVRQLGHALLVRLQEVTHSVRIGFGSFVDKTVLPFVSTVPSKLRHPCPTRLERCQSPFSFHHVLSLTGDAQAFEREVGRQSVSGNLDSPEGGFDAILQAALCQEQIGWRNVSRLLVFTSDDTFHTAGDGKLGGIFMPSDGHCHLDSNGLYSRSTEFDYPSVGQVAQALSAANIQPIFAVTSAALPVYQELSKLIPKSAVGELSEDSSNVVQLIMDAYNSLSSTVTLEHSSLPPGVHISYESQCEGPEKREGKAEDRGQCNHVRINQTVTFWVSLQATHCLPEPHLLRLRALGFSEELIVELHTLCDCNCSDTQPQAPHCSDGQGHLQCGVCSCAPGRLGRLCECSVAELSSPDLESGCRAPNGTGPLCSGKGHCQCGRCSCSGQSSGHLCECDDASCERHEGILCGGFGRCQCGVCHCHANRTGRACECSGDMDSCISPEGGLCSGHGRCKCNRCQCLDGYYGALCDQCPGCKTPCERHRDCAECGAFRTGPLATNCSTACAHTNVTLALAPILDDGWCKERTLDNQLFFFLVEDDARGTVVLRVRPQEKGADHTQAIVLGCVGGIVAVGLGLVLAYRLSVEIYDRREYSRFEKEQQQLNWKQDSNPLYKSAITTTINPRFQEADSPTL
The experiment can be described thus: α4β7 Integrin Cell Capture Assay. It counts as cell-based. The settings on record: capture of α4β7 integrin expressing RPMI8866 cells on recombinant MadCAM-1 extracellular domain-coated plate; 0.5 mM MnCl2. In short, it runs like this: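 RPMI8866 cells (0.5×10^6 cells/mL in DMEM + 0.5% FBS + 0.5 mM MnCl2) preincubated with compound 1 h at 37 °C, then allowed to adhere 30 min at 37 °C to plates coated with MAdCAM-1 extracellular domain (1.0 μg/mL). Bound cells fixed with 2% glutaraldehyde, Hoechst-stained, imaged and counted; EC50 from cell count versus concentration.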
For the molecule `Cc1cc(-c2ccc(C[C@H](NC(=O)c3c(F)cc(N4CCOC[C@@H]4C(F)(F)F)cc3F)C(=O)O)c3c2OCCC3)c(=O)n(C)n1` [Example 148], the EC50 (usually the concentration at which the effect is half-maximal) is 0.76 nM.

Take `Cc1cc(N2CCCC[C@@H]2C(F)(F)F)cc(F)c1C(=O)N[C@@H](Cc1ccc(-c2nc(C)c(C)n(C)c2=O)c2c1CCCO2)C(=O)O` [Example 149]: the EC50 was found to be 0.715 nM. In the case of `Cc1nc(-c2ccc(C[C@H](NC(=O)c3c(F)cc(N4CCOC[C@@H]4C(F)(F)F)cc3Cl)C(=O)O)c3c2OCCC3)c(=O)n(C)c1C` [Example 150] it was 0.14 nM; in that of `Cc1cc(N2CCOC[C@@H]2C(F)(F)F)cc(F)c1C(=O)N[C@@H](Cc1ccc(-c2c(C)c(C)c(C)n(C)c2=O)c2c1CCCO2)C(=O)O` [Example 151], 0.144 nM; in that of `Cc1c(C)c(C)n(C)c(=O)c1-c1ccc(C[C@H](NC(=O)c2c(F)cc(N3CCOC[C@@H]3C(F)(F)F)cc2F)C(=O)O)c2c1OCCC2` [Example 154], 0.358 nM. Then `Cc1cc(N2CCOC[C@@H]2C(F)(F)F)cc(F)c1C(=O)N[C@@H](Cc1ccc(-c2cc(C)c(C)n(C)c2=O)c2c1CCCO2)C(=O)O` [Example 155], with 0.358 nM. Then `Cc1nc(-c2ccc(C[C@H](NC(=O)c3c(F)cc(N4CCCC[C@@H]4C(F)(F)F)cc3F)C(=O)O)c3c2OCCC3)c(=O)n(C)c1C` [Example 156], with 0.84 nM; and `Cc1nc(-c2ccc(C[C@H](NC(=O)c3c(F)cc(N4CCO[C@@H](C)C4)cc3F)C(=O)O)c3c2OCCC3)c(=O)n(C)c1C` [Example 157], with 1.82 nM. As for `C=C1COCCN(c2cc(F)c(C(=O)N[C@@H](Cc3ccc(-c4nc(C)c(C)n(C)c4=O)c4c3CCCO4)C(=O)O)c(F)c2)C1` [Example 158], the EC50 turned out to be 0.502 nM. Take `Cc1cc(C)n(C)c(=O)c1-c1ccc(C[C@H](NC(=O)c2c(F)cc(N3CCOC[C@@H]3C(F)(F)F)cc2Cl)C(=O)O)c2c1OCCC2` [Example 159]: the EC50 came out at 0.226 nM. In the case of `Cc1cc(N2CCOC[C@@H]2C(F)(F)F)cc(F)c1C(=O)N[C@@H](Cc1ccc(-c2c(C)cc(C)n(C)c2=O)c2c1CCCO2)C(=O)O` [Example 160] it was 0.189 nM; in that of `Cc1cc(C)n(C)c(=O)c1-c1ccc(C[C@H](NC(=O)c2c(F)cc(N3CCOC[C@@H]3C(F)(F)F)cc2F)C(=O)O)c2c1OCCC2` [Example 161], 0.364 nM; in that of `Cc1cc(-c2ccc(C[C@H](NC(=O)c3c(F)cc(N4CCOC[C@@H]4C(F)(F)F)cc3F)C(=O)O)c3c2OCCC3)c(=O)n(C)c1C` [Example 162], 0.78 nM. Then `Cc1cn(C)c(=O)c(-c2ccc(C[C@H](NC(=O)c3c(C)cc(N4CCOC[C@@H]4C(F)(F)F)cc3F)C(=O)O)c3c2OCCC3)n1` [Example 163], with 0.731 nM; and `CCc1nc(-c2ccc(C[C@H](NC(=O)c3c(F)cc(N4CCOC[C@@H]4C(F)(F)F)cc3F)C(=O)O)c3c2OCCC3)c(=O)n(C)c1CC` [Example 164], with 0.482 nM; and `Cc1cc(N2CCOC[C@@H]2C(F)(F)F)cc(F)c1C(=O)N[C@@H](Cc1ccc(-c2nc(C)c(C)n(C)c2=O)c2c1CCCO2)C(=O)O` [Example 165], with 0.25 nM. In the case of `COc1cc(C)n(C)c(=O)c1-c1ccc(C[C@H](NC(=O)c2c(C)cc(N3CCOC[C@@H]3C(F)(F)F)cc2F)C(=O)O)c2c1OCCC2` [Example 166] it was 0.195 nM; in that of `Cc1cc(N2CCC2)c(-c2ccc(C[C@H](NC(=O)c3c(F)cc(N4CCOC[C@@H]4C(F)(F)F)cc3F)C(=O)O)c3c2OCCC3)c(=O)n1C` [Example 167], 0.521 nM; in that of `Cc1cn(C)c(=O)c(-c2ccc(C[C@H](NC(=O)c3c(F)cc(N4CCOC[C@@H]4C(F)(F)F)cc3F)C(=O)O)c3c2OCCC3)n1` [Example 168], 0.946 nM.

On to `CCc1nc(-c2ccc(C[C@H](NC(=O)c3c(C)cc(N4CCOC[C@@H]4C(F)(F)F)cc3F)C(=O)O)c3c2OCCC3)c(=O)n(C)c1CC` [Example 169], for which the EC50 was 0.356 nM. In the case of `Cc1cc(N2CCOC[C@@H]2C(F)(F)F)cc(F)c1C(=O)N[C@@H](Cc1ccc(-c2cc3cnccc3n(C)c2=O)c2c1CCCO2)C(=O)O` [Example 170] it was 0.14 nM; in that of `Cn1c(=O)c(-c2ccc(C[C@H](NC(=O)c3c(F)cc(N4CCOC[C@@H]4C(F)(F)F)cc3F)C(=O)O)c3c2OCCC3)cc2cnccc21` [Example 171], 0.201 nM. In the case of `Cc1cc(N2CCOC[C@@H]2C(F)(F)F)cc(F)c1C(=O)N[C@@H](Cc1ccc(-n2c(=O)c3ccncc3n(C)c2=O)c2c1OCCO2)C(=O)O` [Example 173] it was 0.056 nM; in that of `Cc1nc(-c2ccc(C[C@H](NC(=O)c3c(F)cc(N4CCOC[C@@H]4C(F)(F)F)cc3F)C(=O)O)c3c2OCCO3)c(=O)n(C)c1C` [Example 175], 0.205 nM; in that of `Cc1ncc(-c2ccc(C[C@H](NC(=O)c3c(F)cc(N4CCOC[C@@H]4C(F)(F)F)cc3F)C(=O)O)c3c2OCCO3)c(=O)n1C` [Example 177], 0.593 nM. In the case of `Cc1cc(N2CCOC[C@@H]2C(F)(F)F)cc(F)c1C(=O)N[C@@H](Cc1ccc(-c2cnc(C)n(C)c2=O)c2c1OCCO2)C(=O)O` [Example 178] it was 0.348 nM; in that of `Cc1cc(N2CCOC[C@@H]2C(F)(F)F)cc(F)c1C(=O)N[C@@H](Cc1ccc(-c2nc(C)c(C)n(C)c2=O)c2c1OCCO2)C(=O)O` [Example 179], 0.267 nM. With `CCc1nc(-c2ccc(C[C@H](NC(=O)c3c(C)cccc3F)C(=O)O)c3c2OCCO3)c(=O)n(C)c1CC` [Example 180], the EC50 turned out to be 5.04 nM. Then `Cc1cccc(F)c1C(=O)N[C@@H](Cc1ccc(-c2nc(C)c(C)n(C)c2=O)c2c1OCCO2)C(=O)O` [Example 181], with 4.34 nM; and `Cn1c(=O)n(-c2ccc(C[C@H](NC(=O)c3c(F)cc(N4CCOC[C@@H]4C(F)(F)F)cc3F)C(=O)O)c3c2COC3)c(=O)c2ccncc21` [Example 182], with 0.277 nM. Then `Cc1cc(N2CCOC[C@@H]2C(F)(F)F)cc(F)c1C(=O)N[C@@H](Cc1ccc(-c2c(C)nc(C)n(C)c2=O)c2c1COC2)C(=O)O` [Example 183], with 0.106 nM.

As for `Cc1nc(C)n(C)c(=O)c1-c1ccc(C[C@H](NC(=O)c2c(F)cc(N3CCOC[C@@H]3C(F)(F)F)cc2F)C(=O)O)c2c1COC2` [Example 185], the EC50 was 0.282 nM. For the molecule `Cc1cc(N2CCOC[C@@H]2C(F)(F)F)cc(F)c1C(=O)N[C@@H](Cc1ccc(-c2c(C)c(C(F)(F)F)cn(C)c2=O)c2c1COC2)C(=O)O` [Example 187], the EC50 amounted to 0.41 nM.

`Cc1cc(N2CCOC[C@@H]2C(F)(F)F)cc(F)c1C(=O)N[C@@H](Cc1ccc(-c2c(C(F)(F)F)cc(C)n(C)c2=O)c2c1COC2)C(=O)O` [Example 188]: the EC50 came to 0.227 nM.

For `Cc1cc(N2CCOC[C@@H]2C(F)(F)F)cc(F)c1C(=O)N[C@@H](Cc1ccc(-c2cc3cnccc3n(C)c2=O)c2c1COC2)C(=O)O` [Example 189], the EC50 came out at 0.242 nM. Then `Cn1c(=O)c(-c2ccc(C[C@H](NC(=O)c3c(F)cc(N4CCOC[C@@H]4C(F)(F)F)cc3F)C(=O)O)c3c2COC3)cc2cnccc21` [Example 190], with 0.338 nM.
